Test systems include HT29 colon; HOP-92 NSCLC; UO-31 renal; BT-549 breast; KM12 colon; COLO 205 colon; MOLT-4 leukemia; SK-MEL-2 melanoma; HCC-2998 colon; EKVX NSCLC.
Common to all, as to assay: inhibition of tumour cell growth, NCI panel, 48 h

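The compound was tested at five concentrations on cells cultured in 96-well plates, with a 48-hour exposure period. At the GI50, growth is halved. TGI marks complete inhibition of growth.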 A value given as a limit tells only on which side of the number the result lay.

As to `O=C(CCN1CCCC1)Nc1ccc2c(NCCc3ccccc3)c3ccccc3nc2c1`, the GI50 in the assay on HT29 colon is 0.368 µM; in the assay with HOP-92 NSCLC it was 0.332 µM; with UO-31 renal it was 1.49 µM; in the assay on BT-549 breast, 1.19 µM; in the assay with KM12 colon it was 0.466 µM; in the assay with COLO 205 colon, 0.297 µM. Besides, the GI50 in the assay on MOLT-4 leukemia was 0.296 µM; in the assay with SK-MEL-2 melanoma, 0.463 µM; in the assay with HCC-2998 colon it was 0.51 µM; with EKVX NSCLC it was 0.463 µM. Also, the TGI in the assay on HT29 colon was 1.75 µM; with HOP-92 NSCLC, 1.51 µM; with UO-31 renal, 3.69 µM; in the assay on BT-549 breast, 2.66 µM; with KM12 colon, 1.8 µM; in the assay on COLO 205 colon, 1.19 µM. The TGI came out at 1.56 µM in the assay on MOLT-4 leukemia, 1.63 µM in the assay on SK-MEL-2 melanoma, 1.98 µM with HCC-2998 colon and 2.16 µM in the assay with EKVX NSCLC.
Regarding `CCCCCCCCCCC[C@@H](C[C@H]1OC(=O)[C@H]1CCCCCC)OC(=O)[C@@H](CC(C)C)NC=O`, the GI50 with HT29 colon is 3.18 µM; in the assay on HOP-92 NSCLC it was 1.55 µM; in the assay on UO-31 renal, 2.52 µM; with BT-549 breast it was 1.9 µM; with KM12 colon, 3.92 µM; in the assay on COLO 205 colon it was 11.6 µM. Further, the GI50 with MOLT-4 leukemia was 0.704 µM; with SK-MEL-2 melanoma, 6.04 µM; in the assay on HCC-2998 colon it was 5.31 µM; in the assay on EKVX NSCLC, 27.4 µM. The TGI came out at 35.6 µM with HT29 colon; 16.1 µM in the assay with HOP-92 NSCLC; 59.6 µM in the assay with UO-31 renal; 15.9 µM with BT-549 breast; 34.6 µM in the assay on KM12 colon; 32.1 µM in the assay with COLO 205 colon. The TGI in the assay on MOLT-4 leukemia was over 100 µM; with SK-MEL-2 melanoma it was 24.8 µM; with HCC-2998 colon, 27.3 µM; in the assay with EKVX NSCLC it was over 100 µM.
Turning to `Cc1ccc2nc3c(n2c1)C(=O)C(=O)c1ccccc1-3`, the GI50 in the assay on HT29 colon was 1.74 µM; in the assay with HOP-92 NSCLC it was 0.71 µM; with UO-31 renal it was 0.194 µM; with BT-549 breast, 0.168 µM; in the assay with KM12 colon it was 0.574 µM; with COLO 205 colon, 1.91 µM. Further, the GI50 in the assay on MOLT-4 leukemia was 0.434 µM; in the assay with SK-MEL-2 melanoma, 0.293 µM; in the assay on HCC-2998 colon, 0.707 µM; in the assay on EKVX NSCLC, 0.654 µM. Moreover, the TGI with HOP-92 NSCLC was 2.17 µM; in the assay on UO-31 renal, 1 µM; in the assay on BT-549 breast, 0.307 µM; in the assay on KM12 colon, 8.28 µM; in the assay with COLO 205 colon it was 3.76 µM; in the assay with MOLT-4 leukemia, 1.79 µM. Further, the TGI in the assay on SK-MEL-2 melanoma stood at 0.849 µM; in the assay on HCC-2998 colon, 2.19 µM; with EKVX NSCLC, 1.65 µM.
`CC[C@H](C)[C@H](NC(=O)NC(C)(C)C)C(=O)N(C)[C@H](C[C@@H](OC(C)=O)c1nc(C(=O)N[C@@H](Cc2ccccc2)C[C@H](C)C(=O)OC)cs1)C(C)C`: the GI50 is 0.324 µM in the assay with HT29 colon; 3 µM in the assay on HOP-92 NSCLC; 1.26 µM in the assay with UO-31 renal; 0.241 µM in the assay with BT-549 breast; 0.682 µM with KM12 colon; 0.446 µM in the assay with COLO 205 colon. In addition, the GI50 in the assay on MOLT-4 leukemia is 0.853 µM; in the assay on SK-MEL-2 melanoma, 0.405 µM; in the assay with HCC-2998 colon it was 0.507 µM; with EKVX NSCLC it was 1.24 µM. In addition, the TGI was over 8.91 µM in the assay on HT29 colon; over 25 µM in the assay with HOP-92 NSCLC; over 25 µM in the assay with UO-31 renal; 1.52 µM in the assay on BT-549 breast; over 25 µM with KM12 colon; 1.12 µM with COLO 205 colon. Besides, the TGI with MOLT-4 leukemia, with SK-MEL-2 melanoma, in the assay on HCC-2998 colon and in the assay on EKVX NSCLC was over 25 µM each time.
In the case of `COc1cnc2c(c1)C(=O)c1c-2n(CCCNCCN2CCOCC2)c(=O)c2cc([N+](=O)[O-])ccc12`, the GI50 in the assay with HT29 colon is 0.154 µM; with HOP-92 NSCLC, 0.866 µM; in the assay with UO-31 renal it was 0.0523 µM; with BT-549 breast, 0.286 µM; with KM12 colon, 0.399 µM; in the assay on COLO 205 colon it was 0.297 µM. In addition, the GI50 in the assay with MOLT-4 leukemia is 0.0335 µM; with SK-MEL-2 melanoma it was 1.59 µM; in the assay on HCC-2998 colon, 0.303 µM; in the assay on EKVX NSCLC it was 0.446 µM. Also, the TGI in the assay with HT29 colon worked out at 1.31 µM; in the assay with HOP-92 NSCLC, 22.8 µM; in the assay with BT-549 breast, 4.13 µM; in the assay on KM12 colon, 3.57 µM; in the assay on COLO 205 colon it was 3.07 µM; in the assay on MOLT-4 leukemia, 0.269 µM. Besides, the TGI with SK-MEL-2 melanoma was determined as 14.4 µM; in the assay with HCC-2998 colon, 1.54 µM; in the assay on EKVX NSCLC it was 3.5 µM.
As for `O=C1/C(=C/c2ccc(Cl)cc2)CN(C(=O)CCN2CCC(=NO)CC2)C/C1=C\c1ccc(Cl)cc1`, the GI50 with HT29 colon is 0.338 µM; with HOP-92 NSCLC, 1.64 µM; with UO-31 renal, 1.01 µM; in the assay with BT-549 breast, 1.47 µM; in the assay on KM12 colon it was 0.388 µM; with COLO 205 colon, 0.345 µM. The GI50 was 0.397 µM in the assay with MOLT-4 leukemia, 1.95 µM in the assay on SK-MEL-2 melanoma, 0.699 µM in the assay on HCC-2998 colon and 1.62 µM in the assay with EKVX NSCLC. For the same compound, the TGI in the assay on HT29 colon worked out at 1.31 µM; in the assay with HOP-92 NSCLC, 3.54 µM; in the assay on UO-31 renal, 2.3 µM; in the assay on BT-549 breast it was 2.85 µM; in the assay with KM12 colon it was 0.935 µM; in the assay with COLO 205 colon, 1.32 µM. For the same compound, the TGI came to 3.92 µM in the assay on SK-MEL-2 melanoma, 1.88 µM with HCC-2998 colon and 3.45 µM in the assay with EKVX NSCLC.
With `O=C(c1ccco1)c1nc2cc(C(F)(F)F)ccc2[n+]([O-])c1C(F)(F)F`, the GI50 in the assay with HT29 colon was 33.6 µM; with HOP-92 NSCLC, 36.7 µM; in the assay on UO-31 renal it was 58.8 µM; with BT-549 breast, 63 µM; in the assay with KM12 colon it was 17.4 µM; in the assay with COLO 205 colon, 43.8 µM. Besides, the GI50 was 90.3 µM in the assay with MOLT-4 leukemia, 46 µM in the assay with SK-MEL-2 melanoma, over 100 µM with HCC-2998 colon and 34 µM with EKVX NSCLC. Besides, the TGI in the assay with HT29 colon, in the assay with HOP-92 NSCLC, in the assay with UO-31 renal, with BT-549 breast, in the assay with KM12 colon and in the assay on COLO 205 colon was over 100 µM each time. Also, the TGI with MOLT-4 leukemia, with SK-MEL-2 melanoma, in the assay with HCC-2998 colon and in the assay with EKVX NSCLC was over 100 µM each time.

The values are drawn from PubChem BioAssay (NCI).
